Test results taken from US20220402883A1, “COMPOUNDS AND METHODS FOR MODULATING RNA FUNCTION” (Arrakis Therapeutics, Inc., priority 2016, published 2022).
Counter-ions that a name gives are not always drawn.

System: RNA3WJ_0.0.0_5IB_3FAM (3WJ_0.0.0_5IB_3FAM RNA construct)
Assay: Thermal shift binding assay
Conditions: for Melt. Temp. with cmpd / Shift melt. Temp.: RNA sequence 3WJ_0.0.0_5IB_FAM; for Melt. Temp. with cmpd: melting temperature in presence of compound; for Shift melt. Temp.: with cmpd minus without cmpd; for Temp. Shift: 1 μM RNA, 8 μM compound, 10 mM CacoK pH 7.2, 30 mM NaCl
Source text: Purpose: Test binding of compounds for RNA three way junction (for example, a construct of 38 nt). Thermal shift assay based on established fluorescence quenching assay utilizing FAM as fluorescence tag and Iowa Black as quencher. Tags were attached at the 3′ and 5′ end, respectively. Stable formation of 3WJ upon compound binding would lead to quenching of the FAM fluorescence due to close proximity of the Iowa Black tag. Thermal unfolding leads to increase of fluorescence emission. Assay readout: FAM (465-510 nm) Thermal Shift.
Assay sample buffer used: 10 mM CacoK pH 7.2, 30 mM NaCl. Buffer preparation in Dnase/Rnase Free distilled water (Gibco Life Technologies).
Dilute the RNA 1:10 (final 10 μM) in Assay Buffer.
Heat up the diluted RNA up to 90° C. for 5 min (sealed Eppendorf Tube).
Cool down the RNA probe slowly to RT.
Dilute the compounds to 800 μM in DMSO (Assay: 8 μM). […]
Pipet 20 μL Sample Solution into Roche, Light Cycler480 Multiwell Plate96, white, REF 04729692001.
Measure the 96 plate with the LightCycler480 (Channel: 480/510 nm; Temperature: 41-91° C.).
Analyse measurement-data with the MeltingCurveGenotyping Mode.
Settings: Acquisition mode: continuous; Ramp rate: 0.1° C./sec; Acquisition: 6° C.
Curves are fitted with raw and normalized data.
Melting curves analysis show melting temperature (Tm) of ˜51° C. Range of RNA concentrations was tested and assay window was determined (conc. range of 0.5-1 μM yields best results). The choice of buffer also affected the Tm. RNA constructs were tested under different buffer conditions (especially in presence of salt) in the thermal shift assay. […] CacoK with 30 mM salt at 1 μM RNA conc. was used to assess compound effects on 3WJ stability. […] These conditions were used for screening test compounds.

Row | SMILES | Melt. Temp. with cmpd [°C] | Shift melt. Temp. | Temp. Shift
1 | CN(CCOCCN(C)C(=O)[C@@H]1C[C@H](N=[N+]=[N-])CN1C(=O)COc1ccc2c(=O)oc(=O)n(C)c2c1)C(=O)CCC12c3cc(NC(=O)CCCCCCCN)ccc3C(c3ccc(NC(=O)CCCCCCCN)cc31)c1ccc(NC(=O)CCCCCCCN)cc12 [ARK000024, N,N′,N″-(9-(3-((2-(2-((2S,4S)-4-azido-N-methyl-1-(2-((1-methyl-2,4-dioxo-1,4-dihydro-2H-benzo[d][1,3]oxazin-7-yl)oxy)acetyl)pyrrolidine-2-carboxamido)ethoxy)ethyl)(methyl)amino)-3-oxopropyl)-9,10-dihydro-9,10-[1,2]benzenoanthracene-2,7,15-triyl)tris(8-aminooctanamide)] | 60.7 | +0.3 °C | 
2 | O=C(O)CCC12C3=C(CCNC3)C(c3ccccc31)c1ccccc12 [ARK000019] | 60.0 | −0.3 °C | 
3 | CN(CCOCCOCCOCCNC(=O)CCC12c3cc(NC(=O)CCCCCCCN)ccc3C(c3ccc(NC(=O)CCCCCCCN)cc31)c1ccc(NC(=O)CCCCCCCN)cc12)C(=O)[C@@H]1C[C@H](N=[N+]=[N-])CN1C(=O)COc1ccc2c(=O)oc(=O)n(C)c2c1 [ARK000026, N,N′,N″-(9-(1-((2S,4S)-4-azido-1-(2-((1-methyl-2,4-dioxo-1,4-dihydro-2H-benzo[d][1,3]oxazin-7-yl)oxy)acetyl)pyrrolidin-2-yl)-2,14-dimethyl-1,15-dioxo-5,8,11-trioxa-2,14-diazaheptadecan-17-yl)-9,10-dihydro-9,10-[1,2]benzenoanthracene-2,7,15-triyl)tris(8-aminooctanamide)] | 60.9 | −1.2 °C | 
4 | CN(CCOCCN(C)C(=O)[C@@H]1C[C@H](N=[N+]=[N-])CN1C(=O)CCc1ccc(S(=O)(=O)F)cc1)C(=O)CCC12c3cc(NC(=O)CCCCCCCN)ccc3C(c3ccc(NC(=O)CCCCCCCN)cc31)c1ccc(NC(=O)CCCCCCCN)cc12 [ARK000027] | 83.4 | +23.7 °C | 
5 | CN(CCOCCOCCNC(=O)CCC12c3cc(NC(=O)CCCCCCCN)ccc3C(c3ccc(NC(=O)CCCCCCCN)cc31)c1ccc(NC(=O)CCCCCCCN)cc12)C(=O)[C@@H]1C[C@H](N=[N+]=[N-])CN1C(=O)c1ccc(S(=O)(=O)F)cc1 [ARK000031, N,N′,N″-(9-(1-((2S,4S)-4-azido-1-(3-(4-(fluorosulfonyl)benzoyl)pyrrolidin-2-yl)-2,11-dimethyl-1,12-dioxo-5,8-dioxa-2,11-diazatetradecan-14-yl)-9,10-dihydro-9,10-[1,2]benzenoanthracene-2,7,15-triyl)tris(azanediyl))tris(8-aminooctanamide)] | 84.1 | +24.1 °C | +24.1 °C
6 | CC1(C)CC(Oc2ccc(-c3ccc(-c4cn[nH]c4)cc3O)nn2)CC(C)(C)N1 [ARK000010] | 61.4 | −0.2 °C | 
7 | CC(C)(C)OC(=O)NCCCC[C@H](NC(=O)OC(C)(C)C)C(=O)Nc1ccc2c(c1)C1(CCC(=O)NCCOCCOCCN)c3cc(NC(=O)[C@H](CCCCNC(=O)OC(C)(C)C)NC(=O)OC(C)(C)C)ccc3C2c2ccc(NC(=O)[C@H](CCCCNC(=O)OC(C)(C)C)NC(=O)OC(C)(C)C)cc21 [ARK000022] | 60.2 | +0.4 °C | 
8 | CC(C)(C)OC(=O)NCCCC[C@H](NC(=O)OC(C)(C)C)C(=O)Nc1ccc2c(c1)C1(CCC(=O)NCCOCCOCCN)c3cc(NC(=O)[C@@H](CCCCNC(=O)OC(C)(C)C)NC(=O)OC(C)(C)C)ccc3C2c2ccc(NC(=O)[C@@H](CCCCNC(=O)OC(C)(C)C)NC(=O)OC(C)(C)C)cc21 [ARK000023] | 60.7 | +0.6 °C | 
9 | NCCCC[C@@H](N)C(=O)Nc1ccc2c(c1)C1c3cc(NC(=O)[C@H](N)CCCCN)ccc3C2c2ccc(NC(=O)[C@H](N)CCCCN)cc21 [ARK000016, (2R,2′R,2″R)—N,N′,N″-(9,10-dihydro-9,10-[1,2]benzenoanthracene-2,7,15-triyl)tris(2,6-diaminohexanamide)] | 83.8 | +21.3 °C | 
10 | C#CCCCC(=O)NC[C@H]1O[C@H](O[C@H]2[C@H](O)[C@@H](O[C@H]3O[C@H](CN=[N+]=[N-])[C@@H](O)[C@H](N)[C@H]3O)[C@H](N)C[C@@H]2N)[C@H](O)[C@@H](O)[C@@H]1O [ARK000009] | 62.9 | +0.6 °C | 
11 | CN(CCOCCN(C)C(=O)[C@@H]1C[C@H](N=[N+]=[N-])CN1C(=O)c1ccc2c(=O)oc(=O)n(C)c2c1)C(=O)CCC12c3cc(NC(=O)CCCCCCCN)ccc3C(c3ccc(NC(=O)CCCCCCCN)cc31)c1ccc(NC(=O)CCCCCCCN)cc12 [ARK000033, N,N′,N″-(9-(3-((2-(2-((2S,4S)-4-azido-N-methyl-1-(1-methyl-2,4-dioxo-1,4-dihydro-2H-benzo[d][1,3]oxazine-7-carbonyl)pyrrolidine-2-carboxamido)ethoxy)ethyl)(methyl)amino)-3-oxopropyl)-9,10-dihydro-9,10-[1,2]benzenoanthracene-2,7,15-triyl)tris(8-aminooctanamide)] | 62.4 | +0.9 °C | 
12 | CN(CCOCCOCCNC(=O)CCC12c3cc(NC(=O)CCCCCCCN)ccc3C(c3ccc(NC(=O)CCCCCCCN)cc31)c1ccc(NC(=O)CCCCCCCN)cc12)C(=O)[C@@H]1C[C@H](N=[N+]=[N-])CN1C(=O)COc1ccc2c(=O)oc(=O)n(C)c2c1 [ARK000025, N,N′,N″-(9-(1-((2S,4S)-4-azido-1-(2-((1-methyl-2,4-dioxo-1,4-dihydro-2H-benzo[d][1,3]oxazin-7-yl)oxy)acetyl)pyrrolidin-2-yl)-2,11-dimethyl-1,12-dioxo-5,8-dioxa-2,11-diazatetradecan-14-yl)-9,10-dihydro-9,10-[1,2]benzenoanthracene-2,7,15-triyl)tris(8-aminooctanamide)] | 50.4 | −10.2 °C | 
13 | N[C@H](Cc1c[nH]cn1)C(=O)Nc1ccc2c(c1)C1c3cc(NC(=O)[C@H](N)Cc4c[nH]cn4)ccc3C2c2ccc(NC(=O)[C@H](N)Cc3cnc[nH]3)cc21 [ARK000018, (2R,2′R,2″R)—N,N′,N″-(9,10-dihydro-9,10-[1,2]benzenoanthracene-2,7,15-triyl)tris(2-amino-3-(1H-imidazol-4-yl)propanamide) hydrochloride] | 60.8 | +0.2 °C | 
14 | O=C(O)CCC12C3=C(CNCC3)C(c3ccccc31)c1ccccc12 [ARK000020] | 60.2 | +0.3 °C | 
15 | CN(CCOCCOCCOCCNC(=O)CCC12c3cc(NC(=O)CCCCCCCN)ccc3C(c3ccc(NC(=O)CCCCCCCN)cc31)c1ccc(NC(=O)CCCCCCCN)cc12)C(=O)[C@@H]1C[C@H](N=[N+]=[N-])CN1C(=O)c1ccc(S(=O)(=O)F)cc1 [ARK000032, 4-((2S,4S)-4-azido-2-(methyl(12-methyl-13-oxo-15-(2,7,15-tris(8-aminooctanamido)-9,10-[1,2]benzenoanthracen-9(10H)-yl)-3,6,9-trioxa-12-azapentadecyl)carbamoyl)pyrrolidine-1-carbonyl)benzenesulfonyl fluoride] | 75.1 | +15.0 °C | +15.0 °C
16 | CN(CCOCCN(C)C(=O)[C@@H]1C[C@H](N=[N+]=[N-])CN1C(=O)c1ccc(S(=O)(=O)F)cc1)C(=O)CCC12c3cc(NC(=O)CCCCCCCN)ccc3C(c3ccc(NC(=O)CCCCCCCN)cc31)c1ccc(NC(=O)CCCCCCCN)cc12 [ARK000030] | 64.8 | +4.8 °C | 
17 | N[C@@H](Cc1c[nH]cn1)C(=O)Nc1ccc2c(c1)C1c3cc(NC(=O)[C@@H](N)Cc4c[nH]cn4)ccc3C2c2ccc(NC(=O)[C@@H](N)Cc3cnc[nH]3)cc21 [ARK000017, (2S,2′S,2″S)—N,N′,N″-(9,10-dihydro-9,10-[1,2]benzenoanthracene-2,7,15-triyl)tris(2-amino-3-(1H-imidazol-4-yl)propanamide)hydrochloride] | 60.6 | −0.6 °C | 
18 | CCOC(=O)c1ccccc1NC(=O)N1CCCN(Cc2csc(C)n2)CC1 [ARK000021] | 40.5 | −19.0 °C | 
19 | CN(CCOCCN(C)C(=O)[C@@H]1C[C@H](N=[N+]=[N-])CN1C(=O)c1ccc2c(=O)oc(=O)[nH]c2c1)C(=O)CCC12c3cc(NC(=O)CCCCCCCN)ccc3C(c3ccc(NC(=O)CCCCCCCN)cc31)c1ccc(NC(=O)CCCCCCCN)cc12 [ARK000034, N,N′,N″-(9-(3-((2-(2-((2S,4S)-4-azido-1-(2,4-dioxo-1,4-dihydro-2H-benzo[d][1,3]oxazine-7-carbonyl)-N-methylpyrrolidine-2-carboxamido)ethoxy)ethyl)(methyl)amino)-3-oxopropyl)-9,10-dihydro-9,10-[1,2]benzenoanthracene-2,7,15-triyl)tris(8-aminooctanamide)] | 60.2 | +0.3 °C | 
